The results in this text go back to patent US8735584B2 (Merck Patent GmbH, priority 2008, dated 2014).

As a reminder, the IC50 is the concentration that gives 50% inhibition.

This assay concerns the target T1, GST-Aurora A (Homo sapiens, UniProt O14965).
T1 construct: N-terminal GST fusion with full length Aurora A (1-403 amino acids); purchased Carna Biosciences 05-101
T1 sequence (O14965 1-403): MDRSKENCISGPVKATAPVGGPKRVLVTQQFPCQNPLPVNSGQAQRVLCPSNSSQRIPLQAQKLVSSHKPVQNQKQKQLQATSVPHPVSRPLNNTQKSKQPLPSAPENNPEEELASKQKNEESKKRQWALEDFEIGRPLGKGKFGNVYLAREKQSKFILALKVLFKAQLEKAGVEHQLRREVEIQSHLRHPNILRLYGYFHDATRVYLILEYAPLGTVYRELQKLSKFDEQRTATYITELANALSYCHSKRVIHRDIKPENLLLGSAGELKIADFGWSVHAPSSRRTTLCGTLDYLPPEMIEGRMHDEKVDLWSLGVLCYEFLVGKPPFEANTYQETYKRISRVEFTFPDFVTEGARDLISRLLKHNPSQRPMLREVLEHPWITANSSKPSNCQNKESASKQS
As to the kind of experiment: Aurora A IC50, Caliper LC3000 mobility shift assay. Type of assay: biochemical. The conditions noted are these: LC3000 method; 15 uM ATP (the KM value); read-out: Aurora Kinase A Activity (IC50). Summed up:
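Readout: percent conversion of FITC-LRRASLG (1 uM) to phosphopeptide, resolved electrophoretically on a Caliper LC3000, fitted against inhibitor concentration for IC50. Reaction: N-terminal GST full-length Aurora A, ATP at its KM (15 uM), pH 7.5 HEPES with MgCl2/DTT, 25 C for 90 min.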

As to `O=C(Nc1ccc(Nc2ccnc3[nH]c(=O)c4ccccc4c23)cc1)c1ccc(F)c(F)c1` [Compound 384, 3,4-Difluoro-N-[4-(6-oxo-5,6-dihydro-benzo[c][1,8]naphthyridin-1-ylamino)-phenyl]-benzamide], the IC50 was < 11 nM.

In the case of `O=C(Nc1ccc(Nc2ccnc3[nH]c(=O)c4ccccc4c23)cc1)c1cc(F)cc(F)c1` [Compound 385, 3,5-Difluoro-N-[4-(6-oxo-5,6-dihydro-benzo[c][1,8]naphthyridin-1-ylamino)-phenyl]-benzamide], the IC50 was < 11 nM.

On to `O=C(Nc1ccc(Nc2ccnc3[nH]c(=O)c4ccccc4c23)cc1)C1CCCCC1` [Compound 386, Cyclohexanecarboxylic acid-[4-(6-oxo-5,6-dihydro-benzo[c][1,8]naphthyridin-1-ylamino)-phenyl]-amide], for which the IC50 was < 11 nM.

For the compound `O=C(Nc1ccc(Nc2ccnc3[nH]c(=O)c4ccccc4c23)cc1)c1cccc(C(F)(F)F)c1F` [Compound 387, 2-Fluoro-N-[4-(6-oxo-5,6-dihydro-benzo[c][1,8]naphthyridin-1-ylamino)-phenyl]-3-trifluoromethyl-benzamide], the IC50 is < 11 nM.

With `O=C(Nc1ccc(Nc2ccnc3[nH]c(=O)c4ccccc4c23)cc1)c1c(F)cccc1F` [Compound 388, 2,6-Difluoro-N-[4-(6-oxo-5,6-dihydro-benzo[c][1,8]naphthyridin-1-ylamino)-phenyl]-benzamide], the IC50 is < 11 nM.

On to `O=C(Nc1ccc(Nc2ccnc3[nH]c(=O)c4ccccc4c23)cc1)c1ccc(Cl)cc1` [Compound 389, 4-Chloro-N-[4-(6-oxo-5,6-dihydro-benzo[c][1,8]naphthyridin-1-ylamino)-phenyl]-benzamide], for which the IC50 is < 11 nM.

As to `O=C(Nc1ccc(Nc2ccnc3[nH]c(=O)c4ccccc4c23)cc1)c1cc(Cl)cc(Cl)c1` [Compound 390, 3,5-Dichloro-N-[4-(6-oxo-5,6-dihydro-benzo[c][1,8]naphthyridin-1-ylamino)-phenyl]-benzamide], the IC50 was < 11 nM.

As to `O=C(Nc1ccc(Nc2ccnc3[nH]c(=O)c4ccccc4c23)cc1)c1ccc(F)cc1F` [Compound 391, 2,4-Difluoro-N-[4-(6-oxo-5,6-dihydro-benzo[c][1,8]naphthyridin-1-ylamino)-phenyl]-benzamide], the IC50 is < 11 nM.

As for `O=C(Nc1ccccc1Nc1ccnc2[nH]c(=O)c3ccccc3c12)c1ccccc1` [Compound 392, N-[2-(6-Oxo-5,6-dihydro-benzo[c][1,8]naphthyridin-1-ylamino)-phenyl]-benzamide], the IC50 was > 100 nM.

For the compound `O=C(Nc1ccc(Nc2ccnc3[nH]c(=O)c4ccccc4c23)cc1)c1cccc(Cl)c1` [Compound 393, 3-Chloro-N-[4-(6-oxo-5,6-dihydro-benzo[c][1,8]naphthyridin-1-ylamino)-phenyl]-benzamide], the IC50 is < 11 nM.

With `Cc1ccc(C(=O)Nc2ccc(Nc3ccnc4[nH]c(=O)c5ccccc5c34)cc2)cc1` [Compound 394, 4-Methyl-N-[4-(6-oxo-5,6-dihydro-benzo[c][1,8]naphthyridin-1-ylamino)-phenyl]-benzamide], the IC50 was < 11 nM.

Take `O=C(Nc1ccc(Nc2ccnc3[nH]c(=O)c4ccccc4c23)cc1)c1c(Cl)cccc1Cl` [Compound 395, 2,6-Dichloro-N-[4-(6-oxo-5,6-dihydro-benzo[c][1,8]naphthyridin-1-ylamino)-phenyl]-benzamide]: the IC50 was < 11 nM.

On to `O=C(Nc1ccc(Nc2ccnc3[nH]c(=O)c4ccccc4c23)cc1)c1cc(F)cc(C(F)(F)F)c1` [Compound 396, 3-Fluoro-N-[4-(6-oxo-5,6-dihydro-benzo[c][1,8]naphthyridin-1-ylamino)-phenyl]-5-trifluoromethyl-benzamide], for which the IC50 is < 11 nM.

Consider `O=C(Nc1ccc(Nc2ccnc3[nH]c(=O)c4ccccc4c23)cc1)c1ccc(C(F)(F)F)cc1F` [Compound 397, 2-Fluoro-N-[4-(6-oxo-5,6-dihydro-benzo[c][1,8]naphthyridin-1-ylamino)-phenyl]-4-trifluoromethyl-benzamide], for which the IC50 is < 11 nM.

`O=C(Nc1ccc(Nc2ccnc3[nH]c(=O)c4ccccc4c23)cc1)c1ccc(Cl)c(Cl)c1` [Compound 398, 3,4-Dichloro-N-[4-(6-oxo-5,6-dihydro-benzo[c][1,8]naphthyridin-1-ylamino)-phenyl]-benzamide]: the IC50 was < 11 nM.

`O=C(Nc1ccc(Nc2ccnc3[nH]c(=O)c4ccccc4c23)cc1)c1ccc(Cl)cc1Cl` [Compound 399, 2,4-Dichloro-N-[4-(6-oxo-5,6-dihydro-benzo[c][1,8]naphthyridin-1-ylamino)-phenyl]-benzamide]: the IC50 is < 11 nM.

Consider `O=C(Nc1ccc(Nc2ccnc3[nH]c(=O)c4ccccc4c23)cc1)c1cc(C(F)(F)F)cc(C(F)(F)F)c1` [Compound 400, N-[4-(6-Oxo-5,6-dihydro-benzo[c][1,8]naphthyridin-1-ylamino)-phenyl]-3,5-bis-trifluoromethyl-benzamide], for which the IC50 lay within 11 to 100 nM.

On to `O=C(Nc1ccc(Nc2ccnc3[nH]c(=O)c4ccccc4c23)cc1)c1ccc(OC(F)(F)F)cc1` [Compound 401, N-[4-(6-Oxo-5,6-dihydro-benzo[c][1,8]naphthyridin-1-ylamino)-phenyl]-4-trifluoromethoxy-benzamide], for which the half-maximal inhibitory concentration (IC50) is 11 to 100 nM.

On to `O=C(NC1CCC(Nc2ccnc3[nH]c(=O)c4ccccc4c23)CC1)c1ccc(F)c(F)c1` (stereo not shown) [Compound 402, 3,4-Difluoro-N-[4-(6-oxo-5,6-dihydro-benzo[c][1,8]naphthyridin-1-ylamino)-cyclohexy]-benzamide], for which the IC50 was 11 to 100 nM.

As for `O=C(Nc1ccc(Nc2ccnc3[nH]c(=O)c4ccc(C(F)(F)F)cc4c23)cc1)c1ccccc1` [Compound 403, N-[4-(9-Trifluoromethyl-6-oxo-5,6-dihydro-benzo[c][1,8]naphthyridin-1-ylamino)-phenyl]-benzamide], the half-maximal inhibitory concentration (IC50) is < 11 nM.

On to `O=C(Nc1ccc(Nc2ccnc3[nH]c(=O)c4ccc(C(F)(F)F)cc4c23)cc1)c1ccc(F)cc1C(F)(F)F` [Compound 404, 4-Fluoro-N-[4-(9-trifluoromethyl-6-oxo-5,6-dihydro-benzo[c][1,8]naphthyridin-1-ylamino)-phenyl]-2-trifluoromethyl-benzamide], for which the IC50 was < 11 nM.

As to `O=C(Nc1ccc(Oc2ccnc3[nH]c(=O)c4ccccc4c23)cc1)c1ccccc1` [Compound 405, N-[4-(6-Oxo-5,6-dihydro-benzo[c][1,8]naphthyridin-1-yloxy)-phenyl]-benzamide], the IC50 was 11 to 100 nM.

As to `O=C(c1ccc(F)c(F)c1)N1CCC(CNc2ccnc3[nH]c(=O)c4ccccc4c23)CC1` [Compound 408, 1-{[1-(3,4-Difluoro-benzoyl)-piperidin-4-ylmethyl]-amino}-5H-benzo[c][1,8]naphthyridin-6-one], the IC50 is > 100 nM.

`COc1cc2c(=O)[nH]c3nccc(Nc4ccc(NC(=O)c5ccccc5)cc4)c3c2cc1OC` [Compound 409, N-[4-(8,9-Dimethoxy-6-oxo-5,6-dihydro-benzo[c][1,8]naphthyridin-1-ylamino)-phenyl]-benzamide]: the concentration for half-maximal inhibition (IC50) was < 11 nM.

Turning to `O=C(Nc1ccc(Nc2ccnc3[nH]c(=O)c4ccc(F)cc4c23)cc1)c1ccccc1` [Compound 412, N-[4-(9-Fluoro-6-oxo-5,6-dihydro-benzo[c][1,8]naphthyridin-1-ylamino)-phenyl]-benzamide], the IC50 is < 11 nM.

On to `O=C(Nc1ccc(Nc2ccnc3[nH]c(=O)c4ccc(F)cc4c23)cc1)c1ccc(F)cc1C(F)(F)F` [Compound 413, 4-Fluoro-N-[4-(9-fluoro-6-oxo-5,6-dihydro-benzo[c][1,8]naphthyridin-1-ylamino)-phenyl]-2-trifluoromethyl-benzamide], for which the IC50 was < 11 nM.

As to `O=C(Nc1ccc(Nc2ccnc3[nH]c(=O)c4cc(F)ccc4c23)cc1)c1ccc(F)cc1C(F)(F)F` [Compound 414, 4-Fluoro-N-[4-(8-fluoro-6-oxo-5,6-dihydro-benzo[c][1,8]naphthyridin-1-ylamino)-phenyl]-2-trifluoromethyl-benzamide], the half-inhibitory concentration (IC50) is < 11 nM.

Consider `O=C(Nc1ccc(Nc2ccnc3[nH]c(=O)c4cc(Cl)ccc4c23)cc1)c1ccc(F)cc1C(F)(F)F` [Compound 415, 4-Fluoro-N-[4-(8-chloro-6-oxo-5,6-dihydro-benzo[c][1,8]naphthyridin-1-ylamino)-phenyl]-2-trifluoromethyl-benzamide], for which the concentration for half-maximal inhibition (IC50) was < 11 nM.

As to `COc1cc2c(=O)[nH]c3nccc(Nc4ccc(NC(=O)c5ccc(F)cc5C(F)(F)F)cc4)c3c2cc1OC` [Compound 416, 4-Fluoro-N-[4-(8,9-dimethoxy-6-oxo-5,6-dihydro-benzo[c][1,8]naphthyridin-1-ylamino)-phenyl]-2-trifluoromethyl-benzamide], the half-inhibitory concentration (IC50) was < 11 nM.

Regarding `O=C(Nc1ccc(Nc2ccnc3[nH]c(=O)c4ccc(F)cc4c23)cc1)c1ccc(F)c(F)c1` [Compound 417, 3,4-Difluoro-N-[4-(9-fluoro-6-oxo-5,6-dihydro-benzo[c][1,8]naphthyridin-1-ylamino)-phenyl]-benzamide], the IC50 was < 11 nM.

With `O=C(Nc1ccc(Nc2ccnc3[nH]c(=O)c4ccc(F)cc4c23)cc1)c1cccc(F)c1F` [Compound 418, 2,3-Difluoro-N-[4-(9-fluoro-6-oxo-5,6-dihydro-benzo[c][1,8]naphthyridin-1-ylamino)-phenyl]-benzamide], the IC50 is < 11 nM.
